According to US20150004100A1, “HETEROCYCLIC COMPOUNDS AS IMAGING PROBES OF TAU PATHOLOGY” (GE HEALTHCARE LIMITED, priority 2011, published 2015):
Entries after “also recorded” stand apart in the source; their conditions may differ.

Tests used:
[1] = Protein binding assay, rat brain homogenates (rapid equilibrium dialysis); type: in vitro ADME; conditions: rat brain homogenate, % bound, criterion <99%
Description: (§1) The protein binding assays provide an estimate of free (unbound) fraction of the compound in the blood or brain in vivo. […] The desirable criterion for this assay is <99% of test compound bound.
(§2) Test compounds were first dissolved in DMSO to a concentration of 50 μM. This was followed by incubation in samples of human plasma and rat brain homogenates (final test concentration 1 μM). Binding of compounds to proteins was determined in the samples by rapid equilibrium dialysis after 5 and 30 min of incubation.

[2] = test system: rat liver microsomes; assay: Liver microsome stability assay, rat; type: in vitro ADME; conditions: 1 μM, 37° C., parent compound remaining, criterion >50%
Description: (§3) The liver microsome stability assay provides an estimate of compound stability and rate of metabolism in vivo. The desirable criterion for this assay is >50% parent compound after 30 min.
(§4) A 1 μM compound solution was incubated with rat or human liver microsomes (20 mg/ml) at 37° C. and the amount of parent compound remaining following the incubation was determined after 5 and 30 min of incubation using LC-MS.

[3] = test system: Aβ+ plaques; assay: Tissue binding assay (fluorescence), plaques in human AD tissue sections; design: key to Plaques (staining): −: No staining; +: weak staining; ++: moderate staining; +++: intense staining; conditions: for Plaques (staining): Table 2, 100 μM, human AD tissue; for Binding to plaques (in words): high test concentration, AD tissue
Description: (§5) Human brain tissue samples from the entorhinal cortex of patients with Alzheimer's disease (AD) and healthy controls were obtained from Tissue Solutions (Tissue Solutions Ltd, Glasgow, UK). Tissue samples were collected after informed written consent, and specimens were dissected at the tissue bank and snap-frozen for cryopreservation at a time interval of between 3 and 18 h after death. The frozen tissue was embedded in TissueTek® (VWR) and sectioned using a Microm HM560 cryostat (Thermo Scientific). Serial 12 μm sections were mounted onto SuperFrost®+ glass slides (VWR) and stored a −70° C.
(§6) The binding of compounds to tau+NFTs and Aβ+ plaques in human AD tissue were evaluated based on fluorescence.
(§7) Briefly, tissue sections were defrosted and fixed in ice-cold 70% ethanol. All tissue sections were rinsed with PBS after fixation and between all subsequent incubation steps. To quench autofluorescence, tissue sections were incubated first with 0.25% KMnO4 (Sigma-Aldrich) in PBS for 12 min, and then with 0.1% […]/0.1% oxalic acid (both reagents from Sigma-Aldrich) in PBS for 1 min. The tissue sections were blocked with 2% BSA in PBS for 10 min, and then incubated with the test compounds at 100 μM concentration for 1 h at RT. […] Finally the tissue sections were rinsed in PBS, and mounted in SlowFade® mounting media (Invitrogen). Images of labelled tissue sections were captured using a Nikon digital camera connected to a Leica microscope and using the NIS Elements D software (Nikon). Images were further processed with the Photoshop® software (Adobe).

[4] = Protein binding assay, human plasma (rapid equilibrium dialysis); type: in vitro ADME; conditions: % bound, criterion <99%
Description: as §1, §2

[5] = PAMPA (parallel artificial membrane permeability assay); type: in vitro ADME; conditions: 10 μM, 5 h at RT; criterion >−6
Description: The PAMPA assay is used to determine how well a compound crosses a cell membrane by measuring its passage through a phosphotidyl choline barrier. A permeability coefficient >−6 indicates high permeability across lipid membranes and is indicative of a compounds ability to cross the blood brain barrier.
A 10 μM solution was incubated on a PDVF membrane coated with a 2% phoshotidyl choline solution for 5 h at RT. Membrane penetration was measured using LC-MS.

[6] = test system: human liver microsomes; assay: Liver microsome stability assay, human; type: in vitro ADME; conditions: 1 μM, 37° C., parent compound remaining, criterion >50%
Description: as §3, §4

[7] = test system: tau+ NFTs; assay: Tissue binding assay (fluorescence), NFTs in human AD tissue sections; design: key to NFTs (staining): −: No staining; +: weak staining; ++: moderate staining; +++: intense staining; conditions: for NFTs (staining): Table 2, human AD tissue
[8] = test system: Aβ+ plaques; assay: Tissue binding assay (fluorescence), plaques in human AD tissue sections; design: key to Plaques (staining): −: No staining; +: weak staining; ++: moderate staining; +++: intense staining; conditions: for Plaques (staining): Table 2, human AD tissue
[9] = test system: tau+ NFTs; assay: Tissue binding assay (fluorescence), NFTs in human AD tissue sections; design: key to NFTs (staining): −: No staining; +: weak staining; ++: moderate staining; +++: intense staining; conditions: for NFTs (staining): Table 2, 100 μM, human AD tissue; for Binding to NFTs (in words): high test concentration, AD tissue
Description: as §5, §6, §7

[10] = literature reports; cited from earlier work
[11] = test system: NFTs and plaques; conditions: literature reports; cited from earlier work
[12] = test system: tau aggregates over Aβ1-42 amyloid; conditions: in vitro, Kudo et al. 2005; cited from earlier work
[13] = In vivo cold bio-distribution in rat (brain uptake, LC-MS)
Description: All animal studies were in compliance with local rules and regulations. Test compounds were administered by intravenous (i.v) injection through the tail vein of naïve male Wistar rats (50 μg test compound/rat). The animals were sacrificed by dislocation of the neck at 2, 10, 30, 60 min post-injection (p.i). The brain and plasma were collected from each animal. The concentration of test compound was measured in the plasma and brain homogenates using LS-MS, and calculated as % compound/g (% ID/g).

[14] = lower test concentrations, AD tissue

Row | fraction unbound at 1 μM [1] | Liver stability Rat (% PCP) 5 min [2] [% PCP] | Liver stability Rat (% PCP) 30 min [2] [% PCP] | Plaques (staining) [3] | fraction unbound at 1 μM [4] | PAMPA Log Pe [5] | Liver stability Human (% PCP) 5 min [6] [% PCP] | Liver stability Human (% PCP) 30 min [6] [% PCP] | NFTs (staining) ([7]; 1 μM) | NFTs (staining) ([7]; 10 μM) | Plaques (staining) ([8]; 1 μM) | Plaques (staining) ([8]; 10 μM) | NFTs (staining) [9] | SMILES | Reported brain uptake in vivo (in words) [10] | Binding to plaques (in words) [3] | Reported binding to NFTs / plaques (in words) [11] | Binding to NFTs (in words) [9] | Selectivity for tau aggregates over Aβ1-42 amyloid [12] | also measured
1 | 0.0906 | 97.06 | 70.19 | + | 0.0098 | −5.24 | 98.9 | 68.29 | + | ++ | − | − | +++ | CC(C)NC(=O)c1nn(-c2ccc(Cl)cc2)c(=O)c2c(N)scc12 [ATPZ, reference compound] | high brain uptake in vivo |  |  |  |  | 
2 |  |  |  | +++ |  |  |  |  | + | ++ | + | ++ | +++ | CC(=C(C#N)C#N)c1ccc2cc(N(C)CCF)ccc2c1 [FDDNP, 2-(1-(2-(N-(2-fluoroethy)-N-methylamino)-naphthalene-6-yl)-ethylidende)-malononitrile, reference compound] |  | detected to both NFTs and plaques | binds to both NFTs and plaques | detected to both NFTs and plaques |  | 
3 |  |  |  |  |  |  |  |  |  |  |  |  |  | Nc1ccc(-c2ccc3ccccc3n2)cc1 [BF-170] |  |  |  |  | threefold | 
4 |  |  |  |  |  |  |  |  |  |  |  |  |  | CNc1ccc(-c2ccc3ccccc3n2)cc1 [BF-158] |  |  |  |  | threefold | 
5 | 0.428 | 81.7 | 56.4 | ++ | 0.0642 | −5.02 | 87.2 | 74.4 | + | ++ | − | + | +++ | CC(C)NC(=O)c1nn(-c2ccc(OCCF)cc2)c(=O)c2c(N)scc12 [Compound 38] |  | binds to both NFTs (A) and plaques (B); also recorded: bind to both NFTs and plaques |  | binds to both NFTs (A) and plaques (B); also recorded: bind to both NFTs and plaques |  | tissue uptake at 2 min ([13]; male, Wistar, rat, brain, iv, 50 μg/rat, 2 min p.i.): > 0.2 %ID/g; tissue uptake at 10 min ([13]; male, Wistar, rat, brain, iv, 50 μg/rat, 10 min p.i.): 0.081 %ID/g; tissue uptake at 30 min ([13]; male, Wistar, rat, brain, iv, 50 μg/rat, 30 min p.i.): 0.021 %ID/g; tissue uptake at 60 min ([13]; male, Wistar, rat, brain, iv, 50 μg/rat, 60 min p.i.): 0.011 %ID/g; Clearance ratio 2:30 min ([13]; rat brain, 2 min vs 30 min p.i.): 13.3; Brain uptake and clearance (in words) ([13]; rat, from clearance ratio): rapid brain uptake followed by rapid clearance; Brain uptake % ID/g p.i ([13]; rat, i.v., 2 min p.i.): 0.28 % ID/g; Binding preference for NFTs (in words) [7, 14]: binds preferentially to NFTs; also recorded: bind with a preference for NFTs

Row | SMILES | fraction unbound at 1 μM [1] | Liver stability Rat (% PCP) 5 min [2] [% PCP] | Liver stability Rat (% PCP) 30 min [2] [% PCP] | Plaques (staining) [3] | fraction unbound at 1 μM [4] | PAMPA Log Pe [5] | Liver stability Human (% PCP) 5 min [6] [% PCP] | Liver stability Human (% PCP) 30 min [6] [% PCP] | NFTs (staining) ([7]; 1 μM) | NFTs (staining) ([7]; 10 μM) | Plaques (staining) ([8]; 1 μM) | Plaques (staining) ([8]; 10 μM) | NFTs (staining) [9] | Reported brain uptake in vivo (in words) [10] | Binding to plaques (in words) [3] | Reported binding to NFTs / plaques (in words) [11] | Binding to NFTs (in words) [9] | Selectivity for tau aggregates over Aβ1-42 amyloid [12] | also measured
6 | [11CH3]Nc1ccc(-c2nc3ccc(O)cc3s2)cc1 [PiB, Pittsburgh compound B, reference compound] |  |  |  | +++ |  |  |  |  | − | + | ++ | ++ | +++ | high brain uptake in vivo | detected to both NFTs and plaques | bind with a preference to Aβ+ plaques | detected to both NFTs and plaques |  | Binding to plaques (in words) [8, 14]: only bound to plaques
